Legend:
Assay in all cases: relative viability (nuclei count vs DMSO), 5 days (fraction); higher = more cells survive
Carboplatin + Bortezomib = compound: C1CC(C1)(C(=O)O)C(=O)O.[NH2-].[NH2-].[Pt+2] [Carboplatin] + CC(C)C[C@H](NC(=O)[C@H](Cc1ccccc1)NC(=O)c1cnccn1)B(O)O [Bortezomib] (partner 0.002 µM)
How it was run: (§1)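 Lung cancer cell lines in 1536-well plates were dosed by pin tool the day after seeding, either with one drug alone or with a fixed anchor-drug dose plus five library-drug doses (not always all listed) in √10 steps. After 5 days, cells were fixed and their nuclei stained in one step (final 0.05% Triton X-100, 1% formaldehyde, 1 ug/ml Hoechst), then counted on 4× images. Relative viability is the nuclei count in treated wells divided by that in vehicle wells. Values are medians of duplicate plates.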

Carboplatin + Foretinib = compound: C1CC(C1)(C(=O)O)C(=O)O.[NH2-].[NH2-].[Pt+2] [Carboplatin] + COc1cc2c(Oc3ccc(NC(=O)C4(C(=O)Nc5ccc(F)cc5)CC4)cc3F)ccnc2cc1OCCCN1CCOCC1 [Foretinib] (partner 0.25 µM)
How it was run: as §1

GSK126 + Tozasertib = compound: CC[C@H](C)N1C=C(C2=C(C=C(C=C21)C3=CN=C(C=C3)N4CCNCC4)C(=O)NCC5=C(C=C(NC5=O)C)C)C [GSK126] + Cc1cc(Nc2cc(N3CCN(C)CC3)nc(Sc3ccc(NC(=O)C4CC4)cc3)n2)n[nH]1 [Tozasertib] (partner 0.1 µM)
How it was run: as §1

MLN4924 + Vorinostat = compound: NS(=O)(=O)OC[C@@H]1C[C@@H](n2ccc3c(N[C@H]4CCc5ccccc54)ncnc32)C[C@@H]1O [MLN4924] + O=C(CCCCCCC(=O)Nc1ccccc1)NO [Vorinostat] (partner 1 µM)
How it was run: as §1

Cell Line	relative viability (Carboplatin + Bortezomib; first compound 0.08 µM)	relative viability (Carboplatin + Bortezomib; first compound 0.253 µM)	relative viability (Carboplatin + Bortezomib; first compound 0.8 µM)	relative viability (Carboplatin + Bortezomib; first compound 2.53 µM)	relative viability (Carboplatin + Bortezomib; first compound 8 µM)	relative viability (Carboplatin + Foretinib; first compound 0.08 µM)	relative viability (Carboplatin + Foretinib; first compound 0.253 µM)	relative viability (Carboplatin + Foretinib; first compound 0.8 µM)	relative viability (Carboplatin + Foretinib; first compound 2.53 µM)	relative viability (Carboplatin + Foretinib; first compound 8 µM)	relative viability (GSK126 + Tozasertib; first compound 0.08 µM)	relative viability (GSK126 + Tozasertib; first compound 0.253 µM)	relative viability (GSK126 + Tozasertib; first compound 0.8 µM)	relative viability (GSK126 + Tozasertib; first compound 2.53 µM)	relative viability (GSK126 + Tozasertib; first compound 8 µM)	relative viability (MLN4924 + Vorinostat; first compound 0.04 µM)	relative viability (MLN4924 + Vorinostat; first compound 0.1265 µM)	relative viability (MLN4924 + Vorinostat; first compound 0.4 µM)	relative viability (MLN4924 + Vorinostat; first compound 1.265 µM)	relative viability (MLN4924 + Vorinostat; first compound 4 µM)
NCI-H1355	1.35	1.33	1.18	1.23	1.04	0.979	0.994	1.02	0.956	0.895	0.573	0.495	0.546	0.533	0.378	0.592	0.629	0.496	0.236	0.227
NCI-H1437	0.526	0.486	0.598	0.453	0.425	1.28	1.34	1.22	1.2	1.08	0.42	0.433	0.4	0.35	0.388	0.769	0.621	0.385	0.229	0.193
NCI-H1650	0.221	0.195	0.193	0.198	0.178	1.51	1.25	0.986	0.982	0.779	0.42	0.455	0.394	0.356	0.3	0.411	0.352	0.22	0.109	0.176
NCI-H1651	0.92	0.967	0.927	0.872	0.761	0.791	0.827	0.822	0.795	0.413	0.717	0.728	0.864	0.57	0.537	0.585	0.613	0.638	0.474	0.239
NCI-H1666	0.842	0.776	0.789	0.774	0.724	0.977	0.918	0.823	0.832	0.607	0.667	0.624	0.557	0.52	0.49	0.697	0.623	0.653	0.443	0.444
NCI-H1734	0.97	0.885	0.921	0.888	0.849	0.777	0.877	0.827	0.954	0.812	0.322	0.235	0.295	0.224	0.283	0.792	0.565	0.208	0.132	0.113
NCI-H1755	0.995	1.02	0.992	1.01	0.887	1.01	0.897	0.899	0.929	0.86	0.577	0.64	0.53	0.552	0.508	0.711	0.494	0.466	0.338	0.261
NCI-H1915	0.984	1.01	0.954	0.845	0.487	1.12	1.13	1.04	1.05	0.81	0.486	0.436	0.447	0.438	0.415	0.52	0.503	0.339	0.149	0.143
NCI-H1975	0.345	0.462	0.462	0.419	0.307	1.08	1.02	0.782	0.88	0.946	0.833	0.69	0.762	0.648	0.48	0.706	0.704	0.993	0.559	0.248
NCI-H1993	1.14	1.16	0.915	0.928	0.908	1.02	0.903	0.763	0.658	0.744	0.586	0.639	0.585	0.659	0.649	0.645	0.26	0.29	0.309	0.314
NCI-H2009	1.12	0.938	0.945	0.918	0.671	1.25	1.18	1.12	1	0.767	0.798	0.705	0.639	0.615	0.464	0.584	0.345	0.214	0.106	0.103
NCI-H2023	1.06	1.18	1.02	0.717	0.204	0.859	0.926	0.897	0.695	0.282	0.387	0.342	0.339	0.266	0.184	0.548	0.457	0.166	0.0535	0.0695
NCI-H2085	1.24	1.2	1.03	1	0.82	1.05	0.933	1.1	0.899	0.691	0.918	0.734	0.76	0.72	0.654	0.769	0.829	0.837	0.635	0.45
NCI-H2087	0.945	0.699	0.781	0.833	0.521	1.18	1.14	1.15	0.957	0.757	0.23	0.222	0.214	0.202	0.258	0.784	0.43	0.135	0.0537	0.125
NCI-H2126	1.14	1.14	1.15	1.15	1.04	1.31	1.14	1.04	1.25	1.04	1	0.835	0.871	0.838	0.812	0.814	0.869	0.555	0.237	0.267
NCI-H2228	1.05	1.35	1.07	0.905	0.467	0.907	0.831	0.626	0.845	0.532	0.254	0.225	0.273	0.172	0.15	0.73	0.601	0.581	0.13	0.0923

Reference: the supplement of paper PMC10307832
